We go through 19 compounds from patent publication US20250235460A1, “COMBINATION THERAPY USING GLUCOSE-DEPENDENT INSULINOTROPIC POLYPEPTIDE RECEPTOR ANTAGONIST COMPOUNDS AND GLP-1 RECEPTOR AGONIST COMPOUNDS” (Pfizer Inc., priority 2024, published 2025).

The term Emax denotes the greatest response seen or fitted, relative to the assay's reference. The term EC50 denotes the concentration giving half of the maximal effect. Read a high EC50 as weaker potency.

Each structure is given as a SMILES string. Bounds are passed on as bounds.

Test [1] deals with human GLP-1R (Homo sapiens, UniProt P43220, G168S). As to the kind of experiment: CHO GLP-1R Clone H6 cAMP HTRF agonist assay (Assay 1, high receptor density). The format is cell-based. The note with it: for Emax: read-out: Assay 1 Emax (%); for EC50: CHO GLP-1R clone H6, cAMP HTRF, geometric mean. In short, it runs like this: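 Averaging differs by parameter: a geometric mean for EC50 and an arithmetic mean for Emax, each over the stated replicate number.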
Sequence of human GLP-1R (Homo sapiens, UniProt P43220, G168S) (P43220 24-463 G168S): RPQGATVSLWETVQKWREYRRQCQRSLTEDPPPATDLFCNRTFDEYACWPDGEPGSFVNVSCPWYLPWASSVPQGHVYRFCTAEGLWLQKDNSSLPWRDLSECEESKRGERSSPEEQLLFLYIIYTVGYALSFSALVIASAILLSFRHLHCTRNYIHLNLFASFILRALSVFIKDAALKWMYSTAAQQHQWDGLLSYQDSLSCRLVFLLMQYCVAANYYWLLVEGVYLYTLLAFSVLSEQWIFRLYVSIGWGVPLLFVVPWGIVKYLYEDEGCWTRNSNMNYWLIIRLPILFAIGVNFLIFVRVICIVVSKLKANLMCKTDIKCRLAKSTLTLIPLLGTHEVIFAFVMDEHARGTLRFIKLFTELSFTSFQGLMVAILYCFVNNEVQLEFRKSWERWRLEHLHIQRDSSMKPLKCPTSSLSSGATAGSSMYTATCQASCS
For orientation: Time-resolved FRET reads energy transfer from a long-lived donor to a nearby acceptor.

Test [2] deals with human GLP-1R (Homo sapiens, UniProt P43220, L260F). As to the kind of experiment: CHO GLP-1R Clone C6 cAMP HTRF agonist assay (Assay 2, low receptor density). The format is cell-based. The conditions noted are these: for Emax: CHO GLP-1R clone C6, arithmetic mean, relative to saturating GLP-1 (1 μM); for EC50: CHO GLP-1R clone C6, cAMP HTRF, geometric mean. From the text:
In Table 5 and Table 6, assay data are presented to two (2) significant figures as the geometric mean (EC50s) and arithmetic mean (Emax) based on the number of replicates listed (Number). A blank cell means there was no data for that Example or the Emax was not calculated.

[3] abbreviates: CHO GLP-1R clone H6, arithmetic mean, relative to saturating GLP-1 (1 μM).

Sequence of human GLP-1R (Homo sapiens, UniProt P43220, L260F) (P43220 24-463 L260F): as the sequence (P43220 24-463 G168S) above, with S145G, L237F counted along it

As to `N#Cc1ccc(COc2cccc(C3CCN(Cc4nc5ccc(C(=O)O)cc5n4CC4CCOC4)CC3)n2)c(F)c1` (centres unmarked) [Compound 363B, 2-[(4-{6-[(4-cyano-2-fluorobenzyl)oxy]pyridin-2-yl}piperidin-1-yl)methyl]-1-(tetrahydrofuran-3-ylmethyl)-1H-benzimidazole-6-carboxylic acid], the values for the Emax in test [1] (setting [3]) and in test [2] were 65% and 71%, respectively.

Turning to `CN1CCCC(Cn2c(CN3CCC(c4cccc(OCc5ccc(Cl)cc5F)n4)CC3)nc3ccc(C(=O)O)cc32)C1` (centres unmarked) [Compound 279B, 2-[(4-{6-[(4-chloro-2-fluorobenzyl)oxy]pyridin-2-yl}piperidin-1-yl)methyl]-1-[(1-methylpiperidin-3-yl)methyl]-1H-benzimidazole-6-carboxylic acid], the EC50 in test [1] was determined as 11 nM; in test [2] it was 410 nM. In addition, the Emax in test [1] (setting [3]) was 71%; in test [2], 75%.

In the case of `O=C(O)c1ccc2nc(CN3CCC(c4cccc(OCc5ccc(Cl)cc5F)n4)CC3)n(Cc3cocn3)c2c1` [Compound 155B, 2-[(4-{6-[(4-chloro-2-fluorobenzyl)oxy]pyridin-2-yl}piperidin-1-yl)methyl]-1-(1,3-oxazol-4-ylmethyl)-1H-benzimidazole-6-carboxylic acid], the 50% effective concentration (EC50) came to 7.9 nM in test [1] and 150 nM in test [2]. The Emax came to 80% in test [1] (setting [3]) and 100% in test [2].

Turning to `Cn1c(CN2CCC(c3cccc(OCc4ccccc4OC(F)(F)F)n3)CC2)nc2ccc(C(=O)O)cc21` [Compound 229B, 1-methyl-2-{[4-(6-{[2-(trifluoromethoxy)benzyl]oxy}pyridin-2-yl)piperidin-1-yl]methyl}-1H-benzimidazole-6-carboxylic acid], the EC50 in test [1] worked out at 1 nM; in test [2] it was 19 nM. Also, the Emax in test [1] (setting [3]) stood at 76%; in test [2], 75%.

For the compound `Cn1c(CN2CCC(c3cccc(OCc4ccc(Cl)cc4F)n3)CC2)nc2cc(F)c(C(=O)O)cc21` [Compound 206B, 2-[(4-{6-[(4-chloro-2-fluorobenzyl)oxy]pyridin-2-yl}piperidin-1-yl)methyl]-5-fluoro-1-methyl-1H-benzimidazole-6-carboxylic acid], the EC50 in test [1] was determined as 38 nM; in test [2], 760 nM. In addition, in test [2], the Emax turned out to be 91%.

On to `O=C(O)c1ccc2nc(CN3CCC(c4cccc(OCc5ccc(Cl)cc5F)n4)CC3)n(C[C@@H]3CCO3)c2n1` [Compound 122B, 2-[(4-{6-[(4-chloro-2-fluorobenzyl)oxy]pyridin-2-yl}piperidin-1-yl)methyl]-3-[(2S)-oxetan-2-ylmethyl]-3H-imidazo[4,5-b]pyridine-5-carboxylic acid], for which the results for the EC50 in test [1] and in test [2] were 1.5 nM and 14 nM, respectively. In addition, the Emax was 86% in test [1] (setting [3]) and 82% in test [2].

As to `COCCn1c(CN2CCC(c3cccc(OCc4ccc(Cl)cc4F)n3)CC2)nc2ncc(C(=O)O)c(C)c21` [Compound 208B, 2-[(4-{6-[(4-chloro-2-fluorobenzyl)oxy]pyridin-2-yl}piperidin-1-yl)methyl]-1-(2-methoxyethyl)-7-methyl-1H-imidazo[4,5-b]pyridine-6-carboxylic acid], the EC50 in test [1] turned out to be 1.7 nM; in test [2], 41 nM. Moreover, the Emax in test [1] (setting [3]) was 82%; in test [2], 99%.

For the compound `N#Cc1ccc(COc2cccc(C3CCN(Cc4nc5ccc(C(=O)O)cc5n4C[C@@H]4CCCO4)CC3)n2)cc1` [Compound 131B, 2-[(4-{6-[(4-cyanobenzyl)oxy]pyridin-2-yl}piperidin-1-yl)methyl]-1-[(2S)-tetrahydrofuran-2-ylmethyl]-1H-benzimidazole-6-carboxylic acid], the EC50 came out at 45 nM in test [1] and 1000 nM in test [2]. In addition, the maximum response (Emax) in test [1] (setting [3]) is 65%; in test [2], 84%.

In the case of `COCCn1c(CN2CC[C@H](c3cccc(OCc4ccc(Cl)cc4F)n3)[C@H](O)C2)nc2ccc(C(=O)O)cc21` (racemic) [Compound 191B, rac-2-{[(3R,4S)-4-{6-[(4-chloro-2-fluorobenzyl)oxy]pyridin-2-yl}-3-hydroxypiperidin-1-yl]methyl}-1-(2-methoxyethyl)-1H-benzimidazole-6-carboxylic acid], the EC50 in test [1] amounted to 0.55 nM; in test [2], 9.2 nM. The Emax in test [1] (setting [3]) turned out to be 77%; in test [2], 94%.

For `Cc1cc(C)n(CCn2c(CN3CCC(c4cccc(OCc5ccc(Cl)cc5F)n4)CC3)nc3ccc(C(=O)O)cc32)n1` [Compound 332B, 2-[(4-{6-[(4-chloro-2-fluorobenzyl)oxy]pyridin-2-yl}piperidin-1-yl)methyl]-1-[2-(3,5-dimethyl-1H-pyrazol-1-yl)ethyl]-1H-benzimidazole-6-carboxylic acid], the EC50 was 5.3 nM in test [1] and 21 nM in test [2]. The figures for the Emax in test [1] (setting [3]) and in test [2] were 76% and 84%, respectively.

`N#Cc1ccc(COc2cccc(C3CCN(Cc4nc5ccc(C(=O)O)nc5n4Cc4ncco4)CC3)n2)c(F)c1` [Compound 168B, 2-[(4-{6-[(4-cyano-2-fluorobenzyl)oxy]pyridin-2-yl}piperidin-1-yl)methyl]-3-(1,3-oxazol-2-ylmethyl)-3H-imidazo[4,5-b]pyridine-5-carboxylic acid]: in test [1] (setting [3]), the “Assay 1 Emax (%)” value is reported as 79%. Besides, in test [2], a half-maximal response (EC50) required 1700 nM and the Emax is 88%.

In the case of `C[C@H]1CN(c2cccc(OCc3ccc(F)cc3F)n2)CCN1Cc1nc2ccc(C(=O)O)cc2n1C[C@@H]1CCO1` [Compound 134B, 2-{[(2S)-4-{6-[(2,4-difluorobenzyl)oxy]pyridin-2-yl}-2-methylpiperazin-1-yl]methyl}-1-[(2S)-oxetan-2-ylmethyl]-1H-benzimidazole-6-carboxylic acid], the EC50 in test [1] worked out at 300 nM; in test [2], 7700 nM. Moreover, the figures for the Emax in test [1] (setting [3]) and in test [2] were 92% and 100%, respectively.

As to `Cn1c(CN2CCC(c3cccc(OCc4ccccc4F)n3)CC2)nc2ccc(C(=O)O)cc21` [Compound 226B, 2-[(4-{6-[(2-fluorobenzyl)oxy]pyridin-2-yl}piperidin-1-yl)methyl]-1-methyl-1H-benzimidazole-6-carboxylic acid], the concentration giving a half-maximal response (EC50) in test [1] amounted to 2.7 nM; in test [2], 29 nM. Also, the maximal effect (Emax) came out at 73% in test [1] (setting [3]) and 74% in test [2].

Turning to `Cn1cncc1Cn1c(CN2CCN(c3cccc(OCc4ccc(Cl)cc4F)n3)CC2)nc2ccc(C(=O)O)cc21` [Compound 153B, 2-[(4-{6-[(4-chloro-2-fluorobenzyl)oxy]pyridin-2-yl}piperazin-1-yl)methyl]-1-[(1-methyl-1H-imidazol-5-yl)methyl]-1H-benzimidazole-6-carboxylic acid], the EC50 was 24 nM in test [1] and 1200 nM in test [2]. Also, the maximum response (Emax) in test [1] (setting [3]) turned out to be 76%; in test [2], 94%.

Regarding `CN1CCCCC1Cn1c(CN2CCC(c3cccc(OCc4ccc(Cl)cc4F)n3)CC2)nc2ccc(C(=O)O)cc21` (centres unmarked) [Compound 285B, 2-[(4-{6-[(4-chloro-2-fluorobenzyl)oxy]pyridin-2-yl}piperidin-1-yl)methyl]-1-[(1-methylpiperidin-2-yl)methyl]-1H-benzimidazole-6-carboxylic acid], the EC50 in test [1] came to 21 nM; in test [2] it was 200 nM. For the same compound, the maximal response (Emax) in test [1] (setting [3]) came to 82%; in test [2], 81%.

On to `CN1CCC(Cn2c(CN3CCC(c4cccc(OCc5ccc(Cl)cc5F)n4)CC3)nc3ccc(C(=O)O)cc32)CC1` [Compound 283B, 2-[(4-{6-[(4-chloro-2-fluorobenzyl)oxy]pyridin-2-yl}piperidin-1-yl)methyl]-1-[(1-methylpiperidin-4-yl)methyl]-1H-benzimidazole-6-carboxylic acid], for which the EC50 amounted to 15 nM in test [1] and 270 nM in test [2]. The maximal effect (Emax) in test [1] (setting [3]) was 83%; in test [2], 88%.

Consider `COCCn1c(CN2CC[C@H](c3cccc(OCc4ccc(Cl)cc4F)n3)[C@@H](O)C2)nc2ccc(C(=O)O)cc21` (racemic) [Compound 190B, rac-2-{[(3S,4S)-4-{6-[(4-chloro-2-fluorobenzyl)oxy]pyridin-2-yl}-3-hydroxypiperidin-1-yl]methyl}-1-(2-methoxyethyl)-1H-benzimidazole-6-carboxylic acid], for which the values for the 50% effective concentration (EC50) in test [1] and in test [2] were 2.8 nM and 68 nM, respectively. Besides, the Emax in test [1] (setting [3]) was determined as 82%; in test [2] it was 81%.

As to `O=C(O)c1cc2c(cn1)nc(CN1CCC(c3cccc(OCc4ccc(Cl)cc4F)n3)CC1)n2C[C@@H]1CCO1` [Compound 203B, 2-[(4-{6-[(4-chloro-2-fluorobenzyl)oxy]pyridin-2-yl}piperidin-1-yl)methyl]-1-[(2S)-oxetan-2-ylmethyl]-1H-imidazo[4,5-c]pyridine-6-carboxylic acid], the EC50 was more than 15000 nM in test [1] and more than 20000 nM in test [2]. For the same compound, the Emax in test [1] (setting [3]) stood at 98%.

Regarding `COC(C)(C)Cn1c(CN2CCC(c3cccc(OCc4ccc(Cl)cc4F)n3)CC2)nc2ccc(C(=O)O)cc21` [Compound 297B, 2-[(4-{6-[(4-chloro-2-fluorobenzyl)oxy]pyridin-2-yl}piperidin-1-yl)methyl]-1-(2-methoxy-2-methylpropyl)-1H-benzimidazole-6-carboxylic acid], the EC50 in test [1] was 110 nM; in test [2], 3500 nM. Also, the Emax came to 70% in test [1] (setting [3]) and 95% in test [2].
